14 compounds from PubChem BioAssay (NCI) can be followed below.

Some test systems named below: CCRF-CEM leukemia; M14 melanoma; MALME-3M melanoma; NCI-H226 lung; NCI-H23 lung; NCI-H522 lung; OVCAR-4 ovarian; RXF 393 renal; SW-620 colon; UACC-257 melanoma.
Holding throughout (experiment): NCI tumour cell line growth inhibition, 48 h

SMILES strings stand for the structures.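 How tested: cells in 96-well plates exposed to compound for 48 hours at five concentrations. The concentration for 50% growth inhibition is given as GI50. Definition used: TGI = concentration required for complete inhibition of growth.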

For the compound `Clc1ccc2ns[s+]c2c1`, the TGI in the experiment on CCRF-CEM leukemia was above 81.9 µM; with M14 melanoma, above 100 µM; with MALME-3M melanoma, above 100 µM; in the experiment with NCI-H226 lung, above 100 µM; in the experiment on NCI-H23 lung it was above 46.4 µM; in the experiment with NCI-H522 lung, above 100 µM. The TGI in the experiment on OVCAR-4 ovarian, in the experiment on RXF 393 renal, in the experiment with SW-620 colon and in the experiment with UACC-257 melanoma was above 100 µM in each case.

Regarding `Nc1cc2[nH]cnc2c(=O)[nH]1`, the TGI in the experiment on CCRF-CEM leukemia is above 300 µM; with M14 melanoma, above 300 µM; with MALME-3M melanoma, 298 µM; in the experiment with NCI-H226 lung, above 212 µM; in the experiment with NCI-H23 lung it was above 300 µM; in the experiment on NCI-H522 lung it was above 215 µM. Also, the TGI in the experiment with OVCAR-4 ovarian, in the experiment on RXF 393 renal, with SW-620 colon and in the experiment with UACC-257 melanoma was above 300 µM in each case.

For the compound `O=C(N/N=C/c1ccc(Cl)cc1)c1[nH]c2ccc(Cl)cc2c1-c1ccccc1`, the GI50 is 0.0986 µM in the experiment with CCRF-CEM leukemia; 0.0937 µM in the experiment on M14 melanoma; 17.8 µM in the experiment on MALME-3M melanoma; 0.29 µM with NCI-H226 lung; 0.328 µM in the experiment with NCI-H23 lung; 0.0458 µM in the experiment on NCI-H522 lung. Moreover, the GI50 is 0.183 µM with OVCAR-4 ovarian, 0.123 µM in the experiment with RXF 393 renal, 0.159 µM in the experiment on SW-620 colon and 7.42 µM in the experiment on UACC-257 melanoma. Besides, the TGI in the experiment on M14 melanoma is 18.5 µM; in the experiment on MALME-3M melanoma, 76.4 µM; in the experiment on NCI-H226 lung, above 44.5 µM; in the experiment on NCI-H23 lung, 35.5 µM; in the experiment on NCI-H522 lung it was 0.167 µM; with OVCAR-4 ovarian it was above 79.3 µM. The TGI was 1.51 µM with RXF 393 renal, above 100 µM in the experiment with SW-620 colon and above 100 µM in the experiment on UACC-257 melanoma.

Take `CNCCNc1nc2ccccc2c2c(=O)c3cc(F)ccc3sc12`: the GI50 was 1.68 µM with CCRF-CEM leukemia; 1.64 µM with M14 melanoma; 1.67 µM in the experiment on MALME-3M melanoma; 1.8 µM in the experiment on NCI-H226 lung; 1.8 µM with NCI-H23 lung; 1.66 µM in the experiment with NCI-H522 lung. Besides, the GI50 in the experiment on OVCAR-4 ovarian was 1.8 µM; in the experiment with RXF 393 renal it was 1.6 µM; in the experiment on SW-620 colon it was 1.66 µM; in the experiment with UACC-257 melanoma, 1.73 µM. Besides, the TGI in the experiment on CCRF-CEM leukemia was 3.36 µM; with M14 melanoma it was 3.07 µM; in the experiment with MALME-3M melanoma, 3.1 µM; in the experiment with NCI-H226 lung, 3.76 µM; with NCI-H23 lung, 3.65 µM; in the experiment on NCI-H522 lung, 3.42 µM. Also, the TGI in the experiment with OVCAR-4 ovarian stood at 3.66 µM; with RXF 393 renal, 3.1 µM; in the experiment with SW-620 colon, 3.24 µM; in the experiment with UACC-257 melanoma, 3.25 µM.

Turning to `CC[C@]1(O)C[C@@H]2CN(CCc3c([nH]c4ccccc34)[C@@](C(=O)OC)(c3cc4c(cc3OC)N(C)[C@H]3[C@@](O)(C(N)=O)[C@H](O)[C@]5(CC)[C@@H]6C[C@@H]6CN6CC[C@]43[C@@H]65)C2)C1`, the GI50 was below 0.00333 µM in the experiment on CCRF-CEM leukemia; 0.00605 µM with M14 melanoma; 4.9 µM in the experiment on MALME-3M melanoma; 0.0382 µM in the experiment on NCI-H226 lung; below 0.00333 µM with NCI-H23 lung; below 0.00333 µM in the experiment on NCI-H522 lung. Also, the GI50 is 0.0931 µM with OVCAR-4 ovarian, 0.0153 µM in the experiment with RXF 393 renal, below 0.00333 µM with SW-620 colon and above 33.3 µM in the experiment on UACC-257 melanoma. For the same compound, the TGI was above 28.8 µM with CCRF-CEM leukemia; 0.956 µM in the experiment with M14 melanoma; 32.1 µM with MALME-3M melanoma; above 23.7 µM in the experiment on NCI-H226 lung; above 33.3 µM in the experiment on NCI-H23 lung; below 0.00333 µM in the experiment on NCI-H522 lung. Also, the TGI in the experiment with OVCAR-4 ovarian, in the experiment on RXF 393 renal, with SW-620 colon and with UACC-257 melanoma was above 33.3 µM throughout.

For `Cc1cc(=O)oc2cc(OC(=O)N(CCCl)CCCl)ccc12`, the TGI in the experiment on CCRF-CEM leukemia, in the experiment on M14 melanoma, in the experiment with MALME-3M melanoma, in the experiment with NCI-H226 lung, in the experiment on NCI-H23 lung and with NCI-H522 lung was above 100 µM throughout. Moreover, the TGI in the experiment on OVCAR-4 ovarian, in the experiment on RXF 393 renal, in the experiment with SW-620 colon and with UACC-257 melanoma was above 100 µM each time.

Regarding `Cn1cc(C2=C(c3cn(C)c4cc(N)ccc34)C(=O)NC2=O)c2ccccc21`, the GI50 in the experiment on CCRF-CEM leukemia was 1.02 µM; in the experiment on M14 melanoma, 4.96 µM; with MALME-3M melanoma, 11 µM; in the experiment on NCI-H226 lung, 3.59 µM; in the experiment on NCI-H23 lung, 3.72 µM; in the experiment with NCI-H522 lung, 1.36 µM. In addition, the GI50 in the experiment on OVCAR-4 ovarian is 4.41 µM; with RXF 393 renal, 1.84 µM; in the experiment with SW-620 colon, 1.5 µM; in the experiment with UACC-257 melanoma, 5.89 µM. The TGI with CCRF-CEM leukemia was above 11.2 µM; in the experiment on M14 melanoma, above 25 µM; in the experiment with MALME-3M melanoma it was above 22.3 µM; in the experiment on NCI-H226 lung it was 17.2 µM; in the experiment with NCI-H23 lung it was 11.8 µM; in the experiment with NCI-H522 lung it was 8.53 µM. Besides, the TGI with OVCAR-4 ovarian is 17.4 µM; in the experiment on RXF 393 renal, 7.59 µM; with SW-620 colon, above 25 µM; in the experiment with UACC-257 melanoma, 18.1 µM.

As for `CC[C@@]12C=CCN3CC[C@]4(c5cc(NC(=O)COc6cc(OCC(=O)Nc7cc8c(cc7OC)N(C)[C@H]7[C@@](O)(C(=O)OC)[C@H](OC(C)=O)[C@]9(CC)C=CCN%10CC[C@]87[C@@H]%109)cc7oc(-c8ccccc8)cc(=O)c67)c(OC)cc5N(C)[C@@H]4[C@](O)(C(=O)OC)[C@H]1OC(C)=O)[C@H]32`, the GI50 with CCRF-CEM leukemia was 3.51 µM; in the experiment with M14 melanoma, 6.06 µM; in the experiment with MALME-3M melanoma it was above 100 µM; in the experiment on NCI-H226 lung it was 4.34 µM; in the experiment with NCI-H23 lung, 2.15 µM; with NCI-H522 lung, 2.15 µM. In addition, the results for the GI50 with RXF 393 renal, in the experiment on SW-620 colon and in the experiment on UACC-257 melanoma were 1.58 µM, 3.89 µM and above 100 µM, respectively. The TGI in the experiment with CCRF-CEM leukemia is above 100 µM; in the experiment with M14 melanoma, 28.7 µM; in the experiment with MALME-3M melanoma, above 100 µM; in the experiment with NCI-H226 lung, 18 µM; with NCI-H23 lung, 6.58 µM; with NCI-H522 lung it was 6.03 µM. For the same compound, the results for the TGI in the experiment with RXF 393 renal, in the experiment on SW-620 colon and in the experiment on UACC-257 melanoma were 3.28 µM, 26.2 µM and above 100 µM, respectively.

Consider `CCCCN(CC)c1ncnc2ccc(Br)cc12`, for which the GI50 was 19 µM in the experiment with CCRF-CEM leukemia; 18.2 µM in the experiment with M14 melanoma; 19.1 µM in the experiment with MALME-3M melanoma; 16.3 µM with NCI-H226 lung; 18.8 µM with NCI-H23 lung; 21 µM with NCI-H522 lung. The GI50 with OVCAR-4 ovarian was 22.1 µM; with RXF 393 renal it was 8.45 µM. For the same compound, the TGI in the experiment with CCRF-CEM leukemia is 63.8 µM; in the experiment on M14 melanoma, 34.7 µM; with MALME-3M melanoma, 38.5 µM; with NCI-H226 lung it was 48 µM; in the experiment with NCI-H23 lung, 44.4 µM; with NCI-H522 lung, above 100 µM. Further, the TGI in the experiment on OVCAR-4 ovarian was above 100 µM; with RXF 393 renal, 24.7 µM.

In the case of `COC(=O)C(=O)C(C(=O)C(N)=O)c1nc2ccc(C(=O)c3ccccc3)cc2[nH]c1=O` (configuration not stated), the TGI with CCRF-CEM leukemia, in the experiment on M14 melanoma, in the experiment with MALME-3M melanoma, in the experiment on NCI-H226 lung, in the experiment with NCI-H522 lung and in the experiment with OVCAR-4 ovarian was above 100 µM in each case. For the same compound, the TGI in the experiment on RXF 393 renal, in the experiment with SW-620 colon and in the experiment with UACC-257 melanoma was above 100 µM each time.

In the case of `ClCc1ccc(C2OCCO2)cc1`, the TGI in the experiment on CCRF-CEM leukemia is above 69.7 µM; in the experiment on M14 melanoma, 34.3 µM; in the experiment on MALME-3M melanoma, 49.9 µM; in the experiment on NCI-H226 lung, 40.1 µM; with NCI-H23 lung, 17.2 µM; in the experiment with NCI-H522 lung, 28.6 µM. For the same compound, the TGI was above 62 µM with RXF 393 renal, 34.4 µM in the experiment on SW-620 colon and 31.6 µM with UACC-257 melanoma.

Consider `O=c1cc(-c2ccccn2)[nH]c2cc(F)ccc12`, for which the TGI with M14 melanoma, in the experiment on MALME-3M melanoma, in the experiment on NCI-H226 lung, in the experiment on NCI-H23 lung, in the experiment with NCI-H522 lung and in the experiment on OVCAR-4 ovarian was above 100 µM each time. Further, the TGI with RXF 393 renal, in the experiment with SW-620 colon and in the experiment on UACC-257 melanoma was above 100 µM each time.

Take `C[C@]12CC[C@H]3[C@@H](CC[C@]4(O)C[C@@H](O)CC[C@]34CO)[C@@]1(O)CC[C@@H]2C1=CC(=O)OC1`: the TGI in the experiment on CCRF-CEM leukemia was above 36.7 µM; with M14 melanoma it was 14.5 µM; in the experiment on MALME-3M melanoma, 6.47 µM; in the experiment on NCI-H226 lung, 13.8 µM; in the experiment with NCI-H23 lung, 4.98 µM; with NCI-H522 lung, 4.94 µM. Also, the TGI in the experiment on RXF 393 renal was 1.58 µM; with SW-620 colon, above 27 µM; with UACC-257 melanoma, 12.7 µM.

`CSc1nsc(S/C=C\C(=O)c2ccc(C)cc2)n1`: the GI50 in the experiment with M14 melanoma is 15.5 µM; in the experiment with MALME-3M melanoma, 19 µM; in the experiment with NCI-H226 lung, 20.7 µM; with NCI-H23 lung, 17.3 µM; in the experiment with NCI-H522 lung, 12.2 µM; with OVCAR-4 ovarian, 20.8 µM. Moreover, the GI50 with RXF 393 renal was 15.9 µM; in the experiment on SW-620 colon it was 1.3 µM; in the experiment with UACC-257 melanoma, 22.6 µM. Also, the TGI is 30.8 µM in the experiment with M14 melanoma; 38.6 µM in the experiment with MALME-3M melanoma; 55.5 µM in the experiment with NCI-H226 lung; 34.6 µM in the experiment on NCI-H23 lung; above 59.5 µM with NCI-H522 lung; above 58.9 µM in the experiment with OVCAR-4 ovarian. The TGI turned out to be 31.9 µM with RXF 393 renal, 17.8 µM in the experiment on SW-620 colon and 49.2 µM in the experiment on UACC-257 melanoma.
